The values below come from ChEMBL document CHEMBL3044579, “Modified benzoxazinones in the system Oryza sativa-Echinochloa crus-galli: an approach to the development of biorational herbicide models” (J Agric Food Chem, 2008).

In data set [1] the test system is Echinochloa crus-galli. The data set can be described thus: Herbicidal activity against Echinochloa crus-galli (barnyard grass) seeds assessed as inhibition of root growth at 25 degC measured after 5 days. Type of data set: functional, organism-based. To be noted: 120 h.
Data set [2] is described as follows: Selectivity index, ratio of IC50 for Oryza sativa L. seeds to IC50 for Echinochloa crus-galli L. seeds.
In a further data set the test system is Oryza sativa. The data set can be described thus: Phytotoxic activity against Oryza sativa (rice) seeds assessed as inhibition of root growth at 25 degC measured after 7 days by crop selectivity assay. In kind it is organism-based. The conditions noted are these: L., 168 h.
The subject of data set [3] is Echinochloa crus-galli. Description: Ratio of propanil IC50 to compound IC50 for Echinochloa crus-galli (barnyard grass) seeds measured after 5 days. Type of data set: functional.
In data set [4] the test system is Echinochloa crus-galli. Description: Herbicidal activity against Echinochloa crus-galli (barnyard grass) seeds assessed as inhibition of root growth at 48 uM at 25 degC measured after 5 days. In kind it is functional. To be noted: 120 h, read-out: GI.
Data set [5] in a line: Phytotoxic activity against Oryza sativa (rice) seeds assessed as inhibition of root growth at 48 uM at 25 degC measured after 7 days by crop selectivity assay. Type of data set: organism-based, L. The conditions noted are these: read-out: GI.

With `CC(=O)ON1C(=O)COc2ccccc21` [ABOA], the 50% inhibitory concentration (IC50) (as a rule, the concentration at which inhibition is half-maximal) in the data set with Echinochloa crus-galli [1] came to 7180 µM.

In the case of `O=C1COc2ccccc2N1O`, in data set [2], the Ratio IC50 was 0.6. Also, the figures for the IC50 with Echinochloa crus-galli [1] and in the data set on Oryza sativa were 234 µM and 149 µM, respectively.

On to `CCCCC(=O)ON1C(=O)COc2ccccc21` [VAL-D-DIBOA], for which the IC50 in the data set with Echinochloa crus-galli [1] was found to be 1150 µM.

Take `CCCCCCCCCCCCC(=O)ON1C(=O)COc2ccccc21` [TRIDEC-D-DIBOA]: the IC50 in the data set on Echinochloa crus-galli [1] is 359 µM.

Turning to `CCCCCCC1Oc2ccccc2N(O)C1=O` [2-Hexyl-D-DIBOA], the Ratio IC50 in data set [2] amounted to 1.77. For the same molecule, the concentration for half-maximal inhibition (IC50) in the data set with Echinochloa crus-galli [1] amounted to 5590 µM; in the data set on Oryza sativa it was 9880 µM.

With `CCCCCC(=O)ON1C(=O)COc2ccccc21` [HEX-D-DIBOA], the IC50 in the data set with Echinochloa crus-galli [1] amounted to 1200 µM.

Take `CCCCCCCCCC(=O)ON1C(=O)COc2ccccc21` [DEC-D-DIBOA]: the IC50 in the data set on Echinochloa crus-galli [1] came to 107 µM.

As for `CCCC(=O)ON1C(=O)COc2ccccc21` [BU-D-DIBOA], in the data set with Echinochloa crus-galli [1], the IC50 is 2440 µM.

Consider `CCCCCCCCCCCC(=O)ON1C(=O)COc2ccccc21` [LAU-DIBOA], for which the IC50 in the data set with Echinochloa crus-galli [1] turned out to be 170 µM.

`CC1Oc2ccccc2N(O)C1=O` [2-Methyl-D-DIBOA]: the Ratio IC50 in data set [2] came out at 1.62. Besides, the IC50 with Echinochloa crus-galli [1] worked out at 298 µM; with Oryza sativa, 483 µM.

As to `CCCCC1Oc2ccccc2N(O)C1=O` [2-Butyl-D-DIBOA], in data set [2], the Ratio IC50 was determined as 2.21. For the same molecule, the half-maximal inhibitory concentration (IC50) in the data set on Echinochloa crus-galli [1] turned out to be 189 µM; with Oryza sativa, 417 µM.

`CCC(=O)ON1C(=O)COc2ccccc21` [PR-D-DIBOA]: in the data set on Echinochloa crus-galli [1], the IC50 came out at 1090 µM.

For the molecule `CCOC(=O)C1(C)Oc2ccccc2N(O)C1=O` [2-Ethoxycarbonyl-2-methyl-D-DIBOA], the Ratio IC50 in data set [2] was found to be 4.42. Also, the figures for the concentration for half-maximal inhibition (IC50) in the data set on Echinochloa crus-galli [1] and with Oryza sativa were 654 µM and 2890 µM, respectively.

Turning to `CCOC(=O)C1Oc2ccccc2N(O)C1=O` [2-Ethoxycarbonyl-D-DIBOA], in data set [2], the Ratio IC50 amounted to 5.03. The IC50 with Echinochloa crus-galli [1] is 290 µM; in the data set on Oryza sativa it was 1460 µM.

Regarding `CCCCCCCCC(=O)ON1C(=O)COc2ccccc21` [NON-D-DIBOA], the IC50 in the data set with Echinochloa crus-galli [1] was found to be 1440 µM.

Consider `CCCCCCCCCCCCCC(=O)ON1C(=O)COc2ccccc21` [MIR-D-DIBOA], for which the IC50 in the data set with Echinochloa crus-galli [1] was determined as 206 µM.

As to `CCC1Oc2ccccc2N(O)C1=O` [2-Ethyl-D-DIBOA], the “Ratio IC50” value in the data set on Echinochloa crus-galli [3] is 3; in data set [2], 8.35. Further, the IC50 amounted to 39 µM in the data set with Echinochloa crus-galli [1] and 326 µM in the data set on Oryza sativa. Moreover, in the data set with Echinochloa crus-galli [4], the inhibition of growth at 48 µM was 50%. Further, the inhibition at 168 h, 48 µM in data set [5] worked out at 20%.

With `CCCCCCCCCCC(=O)ON1C(=O)COc2ccccc21` [UNDEC-D-DIBOA], the IC50 in the data set on Echinochloa crus-galli [1] amounted to 422 µM.

`CCCCCCC(=O)ON1C(=O)COc2ccccc21` [HEPT-D-DIBOA]: the 50% inhibitory concentration (IC50) in the data set with Echinochloa crus-galli [1] was 537 µM.

For `O=C1C(c2ccccc2)Oc2ccccc2N1O` [2-Phenyl-D-DIBOA], the Ratio IC50 in data set [2] turned out to be 2.96. The IC50 in the data set on Echinochloa crus-galli [1] is 204 µM; in the data set with Oryza sativa, 603 µM.

With `CCC(=O)Nc1ccc(Cl)c(Cl)c1` [PROPANIL], in the data set on Echinochloa crus-galli [1], the IC50 is 114 µM.

Take `CCCC1Oc2ccccc2N(O)C1=O` [2-Propyl-D-DIBOA]: the Ratio IC50 in data set [2] stood at 2.05. The IC50 in the data set on Echinochloa crus-galli [1] came to 162 µM; with Oryza sativa, 331 µM.

As to `CCCCCCCC(=O)ON1C(=O)COc2ccccc21` [OCT-D-DIBOA], in the data set with Echinochloa crus-galli [1], the IC50 came to 448 µM.
